Patent US8987195B2 (priority 2012, dated 2015)
Read-outs that look alike come from different tables or passages of the source.

What was measured:
[1] = biological target: HCV NS3/4A protease genotype 1b (Hepatitis C virus genotype 1b, UniProt P26663); assay: HCV NS3/4A protease time-resolved fluorescence (TRF) assay, Ki against genotype 1b; assay type: biochemical; details: IC50 [gt-1b], NS3/4A protease TRF assay, genotype 1b enzyme 0.2 nM
Procedure, shortened: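 Time-resolved fluorescence readout of NS3/4A cleavage of 25 nM europium-labelled peptide over 2.5 h at room temperature, enzyme levels set for signal/background 10–30 (0.2, 0.4, 0.025 nM for 1b, A156T, 3a). Ki by IC50=Ki(1+[S]/KM).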

HCV genotype 1b replicon = assay: HCV replicon assay, genotype 1b replicon EC50; assay type: cell-based, Hepatitis C virus; details: Hepatitis C virus, HCV replicon, genotype 1b, read-out: EC50 [gt-1b]
Procedure, shortened: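 Replicon cells (Neo^r, some luciferase:Neo^r fusion); G418 removed at plating; compound dilution series, 24-48 h. Readout: RNA by 32P-probe hybridization/protection or TaqMan, normalized to cyclophilin A RNA, or luciferase. EC50 vs DMSO control, 4-parameter fit.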

| Structure (SMILES) | IC50 [1] [nM] | EC50 (HCV genotype 1b replicon) [nM] | IC50 ([1]; K+ salt) [nM] | EC50 (HCV genotype 1b replicon; K+ salt) [nM] |
| --- | --- | --- | --- | --- |
| CC[C@H](C)OC(=O)N[C@H]1CCCCC/C=C\[C@@H]2C[C@@]2(C(=O)NS(=O)(=O)C2(C)CC2)NC(=O)[C@@H]2C[C@]3(CCc4c(c(C5CC5)nc5ccc(OC)cc45)O3)CN2C1=O [Example 421, (2S)-butan-2-yl [(2R,6S,12Z,13aS,14aR,16aS)-5′-cyclopropyl-9′-methoxy-14a-{[(1-methylcyclopropyl)sulfonyl]carbamoyl}-5,16-dioxo-1,1′,2′,5,6,7,8,9,10,11,13a,14,14a,15,16,16a-hexadecahydrospiro[cyclopropa[e]pyrrolo[1,2-a][1,4]diazacyclopentadecine-2,3′-pyrano[2,3-c]quinolin]-6-yl]carbamate] | 0.024 | 1.72 | – | – |
| COc1ccc2nc(C(F)(F)F)c3c(c2c1)CC[C@]1(C[C@H]2C(=O)N[C@]4(C(=O)NS(=O)(=O)C5(C)CC5)C[C@H]4/C=C\CCCCC[C@H](NC(=O)OC4(C)COC4)C(=O)N2C1)O3 [Example 422, 3-methyloxetan-3-yl [(2R,6S,12Z,13aS,14aR,16aS)-9′-methoxy-14a-{[(1-methylcyclopropyl)sulfonyl]carbamoyl}-5,16-dioxo-5′-(trifluoromethyl)-1,1′,2′,5,6,7,8,9,10,11,13a,14,14a,15,16,16a-hexadecahydrospiro[cyclopropa[e]pyrrolo[1,2-a][1,4]diazacyclopentadecine-2,3′-pyrano[2,3-c]quinolin]-6-yl]carbamate] | – | – | 0.008 | 3.14 |
| Cc1ccc2nc(C(F)(F)F)c3c(c2c1)CC[C@]1(C[C@H]2C(=O)N[C@]4(C(=O)NS(=O)(=O)C5(C)CC5)C[C@H]4/C=C\CCCCC[C@H](NC(=O)OCCCN4CCCCC4)C(=O)N2C1)O3 [Example 423, 3-(piperidin-1-yl)propyl [(2R,6S,12Z,13aS,14aR,16aS)-9′-methyl-14a-{[(1-methylcyclopropyl)sulfonyl]carbamoyl}-5,16-dioxo-5′-(trifluoromethyl)-1,1′,2′,5,6,7,8,9,10,11,13a,14,14a,15,16,16a-hexadecahydrospiro[cyclopropa[e]pyrrolo[1,2-a][1,4]diazacyclopentadecine-2,3′-pyrano[2,3-c]quinolin]-6-yl]carbamate] | 0.048 | 19 | – | – |
| Cc1ccc2nc(C(F)(F)F)c3c(c2c1)CC[C@]1(C[C@H]2C(=O)N[C@]4(C(=O)NS(=O)(=O)C5(C)CC5)C[C@H]4/C=C\CCCCC[C@H](NC(=O)OCCCN4CCOCC4)C(=O)N2C1)O3 [Example 424, 3-(morpholin-4-yl)propyl [(2R,6S,12Z,13aS,14aR,16aS)-9′-methyl-14a-{[(1-methylcyclopropyl)sulfonyl]carbamoyl}-5,16-dioxo-5′-(trifluoromethyl)-1,1′,2′,5,6,7,8,9,10,11,13a,14,14a,15,16,16a-hexadecahydrospiro[cyclopropa[e]pyrrolo[1,2-a][1,4]diazacyclopentadecine-2,3′-pyrano[2,3-c]quinolin]-6-yl]carbamate] | 0.033 | 15.1 | – | – |
| Cc1nc2ccc(OCCN3CCOCC3)cc2c2c1O[C@]1(CC2)C[C@H]2C(=O)N[C@]3(C(=O)NS(=O)(=O)C4(C)CC4)C[C@H]3/C=C\CCCCC[C@H](NC(=O)OCC(C)(C)C)C(=O)N2C1 [Example 425, 2,2-dimethylpropyl {(2R,6S,12Z,13aS,14aR,16aS)-5′-methyl-14a-{[(1-methylcyclopropyl)sulfonyl]carbamoyl}-9′-[2-(morpholin-4-yl)ethoxy]-5,16-dioxo-1,1′,2′,5,6,7,8,9,10,11,13a,14,14a,15,16,16a-hexadecahydrospiro[cyclopropa[e]pyrrolo[1,2-a][1,4]diazacyclopentadecine-2,3′-pyrano[2,3-c]quinolin]-6-yl}carbamate] | 0.024 | 3.29 | – | – |
| COc1ccc2nc(C(F)(F)F)c3c(c2c1)[C@@H](F)C[C@]1(C[C@H]2C(=O)N[C@]4(C(=O)NS(=O)(=O)C5(C)CC5)C[C@H]4/C=C\CCCCC[C@H](NC(=O)OC(C)(C)C)C(=O)N2C1)O3 [Example 426, tert-butyl [(l′S,2S,6S,12Z,13aS,14aR,16aS)-1′-fluoro-9′-methoxy-14a-{[(1-methylcyclopropyl)sulfonyl]carbamoyl}-5,16-dioxo-5′-(trifluoromethyl)-1,1′,2′,5,6,7,8,9,10,11,13a,14,14a,15,16,16a-hexadecahydrospiro[cyclopropa[e]pyrrolo[1,2-a][1,4]diazacyclopentadecine-2,3′-pyrano[2,3-c]quinolin]-6-yl]carbamate] | 0.603 | 21.4 | – | – |
| COc1ccc2nc(C(F)(F)F)c3c(c2c1)[C@H](F)C[C@]1(C[C@H]2C(=O)N[C@]4(C(=O)NS(=O)(=O)C5(C)CC5)C[C@H]4/C=C\CCCCC[C@H](NC(=O)OC(C)(C)C)C(=O)N2C1)O3 [Example 427, tert-butyl [(l′R,2S,6S,12Z,13aS,14aR,16aS)-1′-fluoro-9′-methoxy-14a-{[(1-methylcyclopropyl)sulfonyl]carbamoyl}-5,16-dioxo-5′-(trifluoromethyl)-1,1′,2′,5,6,7,8,9,10,11,13a,14,14a,15,16,16a-hexadecahydrospiro[cyclopropa[e]pyrrolo[1,2-a][1,4]diazacyclopentadecine-2,3′-pyrano[2,3-c]quinolin]-6-yl]carbamate] | 0.015 | 1.46 | – | – |
| COc1ccc2nc(C3CC3)c3c(c2c1)[C@H](F)C[C@]1(C[C@H]2C(=O)N[C@]4(C(=O)NS(=O)(=O)C5(C)CC5)C[C@H]4/C=C\CCCCC[C@H](NC(=O)OC(C)(C)C)C(=O)N2C1)O3 [Example 428, tert-butyl [(l′R,2S,6S,12Z,13aS,14aR,16aS)-5′-cyclopropyl-1′-fluoro-9′-methoxy-14a-{[(1-methylcyclopropyl)sulfonyl]carbamoyl}-5,16-dioxo-1,1′,2′,5,6,7,8,9,10,11,13a,14,14a,15,16,16a-hexadecahydrospiro[cyclopropa[e]pyrrolo[1,2-a][1,4]diazacyclopentadecine-2,3′-pyrano[2,3-c]quinolin]-6-yl]carbamate] | 0.02 | 2.21 | – | – |
| COc1ccc2nc(C)c3c(c2c1)CC[C@]1(C[C@H]2C(=O)N[C@]4(C(=O)NS(=O)(=O)C5(C)CC5)C[C@H]4/C=C\CCCCC[C@H](Nc4ncccc4C)C(=O)N2C1)O3 [Example 429, (2R,6S,12Z,13aS,14aR,16aS)-9′-methoxy-5′-methyl-N-[(1-methylcyclopropyl)sulfonyl]-6-[(3-methylpyridin-2-yl)amino]-5,16-dioxo-1,1′,2′,6,7,8,9,10,11,13a,14,15,16,16a-tetradecahydrospiro[cyclopropa[e]pyrrolo[1,2-a][1,4]diazacyclopentadecine-2,3′-pyrano[2,3-c]quinoline]-14a(5H)-carboxamide] | 0.194 | 4.28 | – | – |
| COCCOc1ccc2nc(C)c3c(c2c1)CC[C@]1(C[C@H]2C(=O)N[C@]4(C(=O)NS(=O)(=O)C5(C)CC5)C[C@H]4/C=C\CCCCC[C@H](NC(=O)OC(C)(C)C(F)(F)F)C(=O)N2C1)O3 [Example 430, 1,1,1-trifluoro-2-methylpropan-2-yl [(2R,6S,12Z,13aS,14aR,16aS)-9′-(2-methoxyethoxy)-5′-methyl-14a-{[(1-methylcyclopropyl)sulfonyl]carbamoyl}-5,16-dioxo-1,1′,2′,5,6,7,8,9,10,11,13a,14,14a,15,16,16a-hexadecahydrospiro[cyclopropa[e]pyrrolo[1,2-a][1,4]diazacyclopentadecine-2,3′-pyrano[2,3-c]quinolin]-6-yl]carbamate] | 0.026 | 5.04 | – | – |
